Results from patent US4027017A, “Method of treating alcoholism” (Chugai Seiyaku Kabushiki Kaisha, priority 1974, dated 1977).
Values joined by “and” are separate entries in the source; they are usually repeats but may differ in a detail not shown here. Equal entries are not always repeated. “Also recorded” adds a separate entry of the source.

What was measured:
[1] = test system: neutral lipid in liver; experiment: Inhibiting action for accumulation of neutral lipid in liver (ethanol-treated rats; Van Handel and Zilver-Smit method); assay type: in vivo, Sprague Dawley strain male rats; settings: 160 mg/kg oral in corn oil, 30 min before ethanol 6 g/kg oral; liver taken 24 hours after
Description: Inhibiting Action for Accumulation of Neutral Lipid in Liver […] Each rat was orally administered with trisodium uridine-5'-diphosphate glucuronic acid (UDPGA-3.Na) as a suspension in corn oil in a dose of 160 mg/kg.body weight. Thirty minutes after the administration, each rat was orally administered with ethanol as a 50% aqueous solution in a dose of 6 g/kg.body weight and, 24 hours after the administration, the liver was taken out and an amount of neutral lipid contained therein was determined by the Van Handel and Zilver-Smit method. For control, a glucose aqueous solution having a caloric content equivalent to the same amount of ethanol was used instead of ethanol.

[2] = test system: Sprague Dawley strain male rats; experiment: Behaviour and righting reflex after ethanol, UDPGA.3Na given 30 minutes before ethanol; assay type: in vivo; settings: 160 mg/kg oral 30 min before ethanol 6 g/kg
Description: The Sprague Dawley strain male rats weighing 260±30 g which had been fed rat food commerically available as CLEA CE-2 and prevented from eating food for 12 hours just before the experiment were divided into groups each of 10-13 members each. Each rat was orally administered trisodium uridine-5'-diphosphate glucuronic acid (UDPGA.3Na) in the form of a suspension in corn oil in an amount 160 mg/kg.body weight. Thirty minutes after the administration, ethanol as a 50% aqueous solution was orally administered in a dose of 6 g/kg.body weight and then behavior of the rat was observed over 24 hours.

[3] = test system: Sprague Dawley strain male rats; experiment: Behaviour and righting reflex after ethanol, UDPGA.3Na given 30 minutes after ethanol; assay type: in vivo; settings: 160 mg/kg oral 30 min after ethanol 6 g/kg
Description: The Sprague Dawley strain male rats weighing 160±30 g which were fed rat food commercially available as CLEA CE-2 and prevented from eating food for 12 hours just before the experiment was started. Each rat was administered with ethanol as a 50% aqueous solution in a dose of 6 g/kg.body weight. Thirty minutes after the administration, the rat was orally administered with a suspension of trisodium uridine-5'-diphosphate glucuronic acid (UDPGA.3Na) in corn oil in a dose of 160 mg/kg.body weight based on UDPGA.3Na. The behavior of the rat was observed over 24 hours after the last administration.

[4] = test system: alcohol level in blood; experiment: Measurement of alcohol level in blood (alcoholic dehydrogenase method) and behavior; assay type: in vivo, Sprague Dawley strain female rats; settings: 30 min before ethanol 6 g/kg
Description: Measurement of Alcohol Level in Blood
In this Example, Sprague Dawley strain female rats (weighing 150±20 g) divided into groups of 9-12 members each were used.
After abstention from food overnight each rat was orally administered trisodium uridine-5'-diphosphate glucuronic acid (UDPGA.3Na) in the form of a physiological saline solution in a dose of 160 mg/kg.body weight as an effective ingredient and, 30 minutes after the administration, the rat was administered with ethanol in a dose of 6 g/kg body weight. Four hours and thirty minutes after the administration of ethanol, the rat was etherized, and blood was sampled from its heart to determine alcohol level in the blood by a alcoholic dehydrogenase method. For control, a physiological saline solution was used instead of the UDPGA.3Na solution.

Structure (SMILES): O=C(O)[C@H]1O[C@H](OP(=O)(O)OP(=O)(O)OC[C@H]2O[C@@H](n3ccc(=O)[nH]c3=O)[C@H](O)[C@@H]2O)[C@H](O)[C@@H](O)[C@@H]1O [UDPGA.3Na, trisodium uridine-5'-diphosphate glucuronic acid]
- % inhibition (neutral lipid in liver) [1]: 59.7%
- Neutral Lipid in Liver [1]: 23.05 ± 10.72 mg/g
- Behaviour: Deep Sleep ([2]; 3 hrs. after alcohol): 2 heads
- Behaviour: Lying Flat ([2]; 3 hrs. after alcohol): 4 heads
- Behaviour: Normal Walking ([2]; 3 hrs. after alcohol): 4 heads
- Righting Reflex + ([2]; 3 hrs. after alcohol): 7 heads
- Righting Reflex - ([2]; 3 hrs. after alcohol): 3 heads
- Behaviour: Deep Sleep ([2]; 6 hrs. after alcohol): 2 heads
- Behaviour: Lying Flat ([2]; 6 hrs. after alcohol): 6 heads
- Behaviour: Normal Walking ([2]; 6 hrs. after alcohol): 2 heads
- Righting Reflex + ([2]; 6 hrs. after alcohol): 7 heads
- Righting Reflex - ([2]; 6 hrs. after alcohol): 3 heads
- Behaviour: Deep Sleep ([2]; 9 hrs. after alcohol): 1 heads
- Behaviour: Lying Flat ([2]; 9 hrs. after alcohol): 6 heads
- Behaviour: Normal Walking ([2]; 9 hrs. after alcohol): 3 heads
- Righting Reflex + ([2]; 9 hrs. after alcohol): 9 heads
- Righting Reflex - ([2]; 9 hrs. after alcohol): 1 heads
- Behaviour: Deep Sleep ([2]; 12 hrs. after alcohol): 0 heads
- Behaviour: Lying Flat ([2]; 12 hrs. after alcohol): 0 heads
- Behaviour: Normal Walking ([2]; 12 hrs. after alcohol): 10 heads
- Righting Reflex + ([2]; 12 hrs. after alcohol): 10 heads
- Righting Reflex - ([2]; 12 hrs. after alcohol): 0 heads
- Behaviour: Deep Sleep ([2]; 18 hrs. after alcohol): 0 heads
- Behaviour: Lying Flat ([2]; 18 hrs. after alcohol): 0 heads
- Behaviour: Normal Walking ([2]; 18 hrs. after alcohol): 10 heads
- Righting Reflex + ([2]; 18 hrs. after alcohol): 10 heads
- Righting Reflex - ([2]; 18 hrs. after alcohol): 0 heads
- Behaviour: Deep Sleep ([3]; 3 hrs. after alcohol): 2 heads
- Behaviour: Lying Flat ([3]; 3 hrs. after alcohol): 5 heads
- Behaviour: Normal Walking ([3]; 3 hrs. after alcohol): 3 heads
- Righting Reflex + ([3]; 3 hrs. after alcohol): 7 heads
- Righting Reflex - ([3]; 3 hrs. after alcohol): 3 heads
- Behaviour: Deep Sleep ([3]; 6 hrs. after alcohol): 2 heads
- Behaviour: Lying Flat ([3]; 6 hrs. after alcohol): 6 heads
- Behaviour: Normal Walking ([3]; 6 hrs. after alcohol): 2 heads
- Righting Reflex + ([3]; 6 hrs. after alcohol): 7 heads
- Righting Reflex - ([3]; 6 hrs. after alcohol): 3 heads
- Behaviour: Deep Sleep ([3]; 9 hrs. after alcohol): 1 heads
- Behaviour: Lying Flat ([3]; 9 hrs. after alcohol): 3 heads
- Behaviour: Normal Walking ([3]; 9 hrs. after alcohol): 6 heads
- Righting Reflex + ([3]; 9 hrs. after alcohol): 8 heads
- Righting Reflex - ([3]; 9 hrs. after alcohol): 2 heads
- Behaviour: Deep Sleep ([3]; 12 hrs. after alcohol): 0 heads
- Behaviour: Lying Flat ([3]; 12 hrs. after alcohol): 2 heads
- Behaviour: Normal Walking ([3]; 12 hrs. after alcohol): 8 heads
- Righting Reflex + ([3]; 12 hrs. after alcohol): 10 heads
- Righting Reflex - ([3]; 12 hrs. after alcohol): 0 heads
- Behaviour: Deep Sleep ([3]; 18 hrs. after alcohol): 0 heads
- Behaviour: Lying Flat ([3]; 18 hrs. after alcohol): 0 heads
- Behaviour: Normal Walking ([3]; 18 hrs. after alcohol): 10 heads
- Righting Reflex + ([3]; 18 hrs. after alcohol): 10 heads
- Righting Reflex - ([3]; 18 hrs. after alcohol): 0 heads
- Ethanol level in Blood, Average ([4]; 160 mg/kg oral in physiological saline, blood 4 h 30 min after ethanol, Confidence Limits: 98%): 1.59 ± 0.93 mg/mL
- Ethanol level in Blood (individual test animals) ([4]; 160 mg/kg oral in physiological saline, blood 4 h 30 min after ethanol, test animals 1-12 in block order): 2.21 mg/mL and 1.65 mg/mL and 1.82 mg/mL and 1.41 mg/mL and 1.19 mg/mL and 2.15 mg/mL and 0.85 mg/mL and 0.37 mg/mL and 0.63 mg/mL and 1.79 mg/mL and 2.19 mg/mL and 2.82 mg/mL
- Behavior (individual test animals) ([4]; 160 mg/kg oral in physiological saline, test animals 1-12 in block order): lying flat; also recorded: normal walking; also recorded: deep sleep
- alcohol level in blood in comparison with the control ([4]; 160 mg/kg oral, blood 4 h 30 min after ethanol): significantly lowered
